Values quoted from earlier work as cited in US10694749B2, “Insecticide formulation” (Wellmark International, priority 2016, dated 2020).

Tested on: Mosquito Larvae
Conditions: after ingestion

**Q.** For “Bacillus thuringiensis israelensis [BTI]”, which “time to death of the first larvae after ingesting the bacteria” value is on record?
**A.** The value was 15 to 20 min.
